Measurements: patent publication US9730944B2, “Antiviral activity of novel bicyclic heterocycles” (priority 2010, dated 2017)
Converted amounts (≈) assume the structure as drawn. Like-named read-outs stand apart in the source and are kept apart here.

Experiments:
HIV-1 strain IIIB = test: Inhibition of replication of HIV-1 (IIIB strain) in MT-4 cells, MTT assay; assay type: cell-based; conditions: Human immunodeficiency virus 1, IIIB, MT4, 120 h, read-out: EC50 (μM) HIV-1 (IIIB)
HIV-2 strain (ROD) = test: Inhibition of replication of HIV-2 (ROD strain) in MT-4 cells, MTT assay; assay type: cell-based; conditions: Human immunodeficiency virus 2, MT4, 120 h, read-out: EC50 (μM) HIV-2 (ROD)
in vitro [1] = conditions: human
[2] = tested on: genotype 1a H-77 replicon; test: HCV-1a replicon potency in RLuc-1 cells, bioluminescence; assay type: cell-based; conditions: for HCV-1a Replicon Selectivity Index: CC50/EC50, genotype 1a replicon; for EC50: Hepatitis C virus, 72 h, read-out: HCV-1a Replicon EC50 (μM)
poliovirus (PV type 1) = test: microbe, parasite or virus in culture; assay type: cell-based; conditions: Enterovirus C, read-out: PV-1 EC50
poliovirus (PV type 2) = test: microbe, parasite or virus in culture; assay type: cell-based; conditions: Enterovirus C, read-out: PV-2 EC50
poliovirus (PV type 3) = test: microbe, parasite or virus in culture; assay type: cell-based; conditions: Enterovirus C, read-out: PV-3 EC50
hRV-2 = test: Rhinovirus type 2 antiviral assay in Hela Rh cells, MTS readout; assay type: cell-based, Human rhinovirus; conditions: Rhinovirus A, HRV2, HeLa Rh, Hela Rh cells; read-out: hRV-2 EC50
hRV-9 = test: Rhinovirus type 9 antiviral assay in Hela Rh cells, MTS readout; assay type: cell-based, Human rhinovirus; conditions: Human rhinovirus sp., HRV9, HeLa Rh, Hela Rh cells; read-out: hRV-9 EC50
hRV-14 = test: Rhinovirus type 14 antiviral assay in Hela Rh cells, MTS readout; assay type: cell-based, Human rhinovirus; conditions: Rhinovirus B, HRV14, HeLa Rh, Hela Rh cells; read-out: hRV-14 EC50
hRV-15 = test: Rhinovirus type 15 antiviral assay in Hela Rh cells, MTS readout; assay type: cell-based, Human rhinovirus; conditions: Human rhinovirus sp., HRV15, HeLa Rh, Hela Rh cells; read-out: hRV-15 EC50
hRV-29 = test: Rhinovirus type 29 antiviral assay in Hela Rh cells, MTS readout; assay type: cell-based; conditions: Human rhinovirus sp., HRV29, HeLa Rh, Hela Rh cells; read-out: hRV-29 EC50
hRV-39 = test: Rhinovirus type 39 antiviral assay in Hela Rh cells, MTS readout; assay type: cell-based, Human rhinovirus; conditions: Human rhinovirus sp., HRV39, HeLa Rh, Hela Rh cells; read-out: hRV-39 EC50
hRV-41 = test: Rhinovirus type 41 antiviral assay in Hela Rh cells, MTS readout; assay type: cell-based, Human rhinovirus; conditions: Human rhinovirus sp., HRV41, HeLa Rh, Hela Rh cells; read-out: hRV-41 EC50
hRV-42 = test: Rhinovirus type 42 antiviral assay in Hela Rh cells, MTS readout; assay type: cell-based, Human rhinovirus; conditions: Human rhinovirus sp., HRV42, HeLa Rh, Hela Rh cells; read-out: hRV-42 EC50
hRV-45 = test: Rhinovirus type 45 antiviral assay in Hela Rh cells, MTS readout; assay type: cell-based, Human rhinovirus; conditions: Human rhinovirus sp., HRV45, HeLa Rh, Hela Rh cells; read-out: hRV-45 EC50
hRV-63 = test: Rhinovirus type 63 antiviral assay in Hela Rh cells, MTS readout; assay type: cell-based, Human rhinovirus; conditions: Human rhinovirus sp., HRV63, HeLa Rh, Hela Rh cells; read-out: hRV-63 EC50
hRV-70 = test: Rhinovirus type 70 antiviral assay in Hela Rh cells, MTS readout; assay type: cell-based, Human rhinovirus; conditions: Human rhinovirus sp., HRV70, HeLa Rh, Hela Rh cells; read-out: hRV-70 EC50
hRV-72 = test: Rhinovirus type 72 antiviral assay in Hela Rh cells, MTS readout; assay type: cell-based, Human rhinovirus; conditions: Human rhinovirus sp., HRV72, HeLa Rh, Hela Rh cells; read-out: hRV-72 EC50
hRV-85 = test: Rhinovirus type 85 antiviral assay in Hela Rh cells, MTS readout; assay type: cell-based, Human rhinovirus; conditions: Human rhinovirus sp., HRV85, HeLa Rh, Hela Rh cells; read-out: hRV-85 EC50
hRV-86 = test: Rhinovirus type 86 antiviral assay in Hela Rh cells, MTS readout; assay type: cell-based, Human rhinovirus; conditions: Human rhinovirus sp., HRV86, HeLa Rh, Hela Rh cells; read-out: hRV-86 EC50
in vitro [3] = conditions: African green monkey, PV CC50
in vitro [4] = conditions: human, PV CC50
[5] = Cytostatic/cytotoxic effect in Hela Rh cells (rhinovirus methodology, MTS); conditions: human, CC50, Hela Rh cells
[6] = Cytotoxicity in HCV-1a replicon cells, Promega CellTiter-Glo cell viability assay
genotype 1b replicon = test: HCV genotype 1b replicon potency in R-luc cells, bioluminescence; assay type: cell-based; conditions: 72 hours, average of two or more independent experiments ± std. dev, read-out: Stable replicon cell lines EC50 (μM) Genotype1b (R-luc)
[7] = tested on: genotype 1a H-77 replicon; test: HCV genotype 1a replicon potency in GLuc-1 cells, bioluminescence; assay type: cell-based; conditions: 72 hours, average of two or more independent experiments ± std. dev, read-out: Stable replicon cell lines EC50 (μM) Genotype 1a (Gluc-1)
[8] = tested on: infectious genotype 2a virus (a J6/JFH-1 chimera); test: JFH-1 HCV-2a virus assay in Lunet-CD81 cells, NS3 expression readout; assay type: cell-based
[9] = Cytotoxicity in G-luc replicon cells, Promega CellTiter-Glo cell viability assay; conditions: G-luc (GLuc-1) HCV genotype 1a H-77 replicon cells
[10] = MT-4 cells, MTT assay, five days after infection, 50% protection from cytopathic effect
[11] = Hepatitis C virus, 72 h, read-out: Genotype 2a Virus (Lunet-CD81) EC50 (μM)

CCOc1nc(N)nc2sc(-c3ccc(F)cc3)cc12 [Example 363, 4-ethoxy-6-(4-fluorophenyl)thieno[2,3-d]pyrimidin-2-amine]
EC50 (HIV-1 strain IIIB): ≥ 432 µM
EC50 (HIV-2 strain (ROD)): ≥ 432 µM
melting point: 142 °C
CC50 (in vitro [1]): 432000 nM

Nc1nc(N2CCN(C(=O)COc3ccc(Br)cc3)CC2)c2nc(CCc3ccc(F)cc3)sc2n1 [Example 52, 1-(4-(5-amino-2-(4-fluorophenethyl)thiazolo[5,4-d]pyrimidin-7-yl)piperazin-1-yl)-2-(4-bromophenoxy)ethanone]
EC50 (HIV-1 strain IIIB; [10]): 2.71 µM
EC50 (HIV-2 strain (ROD); [10]): > 95.7 µM
HCV-1a Replicon Selectivity Index [2]: >1.3
EC50 [2]: 35.3 µM
EC50 (poliovirus (PV type 1); HeLa): 0.39 µg/mL (≈ 0.682 µM)
EC50 (poliovirus (PV type 1); Vero): 0.12 µg/mL (≈ 0.21 µM)
EC50 (poliovirus (PV type 2); HeLa): 0.38 µg/mL (≈ 0.665 µM)
EC50 (poliovirus (PV type 2); Vero): 0.1 µg/mL (≈ 0.175 µM)
EC50 (poliovirus (PV type 3); HeLa): > 50 µg/mL
EC50 (poliovirus (PV type 3); Vero): 0.49 µg/mL (≈ 0.857 µM)
EC50 (hRV-2): 15.7 µg/mL (≈ 27.5 µM)
EC50 (hRV-9): > 50 µg/mL
EC50 (hRV-14): > 50 µg/mL
EC50 (hRV-15): > 50 µg/mL
EC50 (hRV-29): > 50 µg/mL
EC50 (hRV-39): 30.7 µg/mL (≈ 53.7 µM)
EC50 (hRV-41): > 50 µg/mL
EC50 (hRV-42): > 50 µg/mL
EC50 (hRV-45): > 50 µg/mL
EC50 (hRV-63): > 50 µg/mL
EC50 (hRV-70): > 50 µg/mL
EC50 (hRV-72): > 50 µg/mL
EC50 (hRV-85): 21.9 µg/mL (≈ 38.4 µM)
EC50 (hRV-86): > 50 µg/mL
CC50 (in vitro [1]): 95700 nM
CC50 (in vitro [3]): 111 µg/mL (≈ 195 µM)
CC50 (in vitro [4]): > 50 µg/mL
CC50 [5]: > 50 µg/mL
CC50 at 72 h [6]: > 44400 nM

Cc1nc2c(N3CCN(C(=O)COc4ccc(Cl)cc4)CC3)nc(N)nc2[nH]1 [Example 400, 1-(4-(2-amino-8-methyl-9H-purin-6-yl)piperazin-1-yl)-2-(4-chlorophenoxy)ethanone]
HCV-1a Replicon Selectivity Index [2]: >164
EC50 [2]: 0.3 µM
EC50 (genotype 1b replicon; Hepatitis C virus): 0.188 ± 0.012 µM
EC50 ([7]; Hepatitis C virus): 0.125 ± 0.035 µM
EC50 [8, 11]: > 50 µM
CC50 at 72 h [9]: > 50000 nM
CC50 at 72 h [6]: > 44400 nM

Nc1nc(N2CCN(C(=O)COc3ccccc3)CC2)c2nc(-c3ccc(F)cc3)[nH]c2n1 [Example 401, 1-(4-(2-amino-8-(4-fluorophenyl)-9H-purin-6-yl)piperazin-1-yl)-2-phenoxyethanone]
HCV-1a Replicon Selectivity Index [2]: 26.5
EC50 [2]: 0.8 µM
EC50 (genotype 1b replicon; Hepatitis C virus): 0.081 ± 0.041 µM
EC50 ([7]; Hepatitis C virus): 0.059 ± 0.008 µM
EC50 [8, 11]: 15.4 µM
CC50 at 72 h [9]: > 50000 nM
CC50 at 72 h [6]: 20400 nM

C[C@@]1(O)[C@H](O)[C@@H](CO)O[C@H]1n1cnc2c(N)ncnc21 [2′CMA]
EC50 (genotype 1b replicon): 0.3 ± 0.02 µM
EC50 [7]: 0.23 ± 0.3 µM
EC50 ([8]; J6/JFH-1 chimera, MOI of 1, 72 hours, NS3 readout, read-out: Genotype 2a Virus (Lunet-CD81) EC50): 0.3 ± 0.03 µM

Nc1nc(N2CCN(C(=O)COc3ccc(Cl)cc3)CC2)c2nc(C3CC3)[nH]c2n1 [Example 398, 1-(4-(2-amino-8-cyclopropyl-9H-purin-6-yl)piperazin-1-yl)-2-(4-chlorophenoxy)ethanone]
HCV-1a Replicon Selectivity Index [2]: >143
EC50 [2]: 0.3 µM
EC50 (genotype 1b replicon; Hepatitis C virus): 0.192 ± 0.008 µM
EC50 ([7]; Hepatitis C virus): 0.274 ± 0.04 µM
EC50 [8, 11]: 29 µM
CC50 at 72 h [9]: > 50000 nM
CC50 at 72 h [6]: > 44400 nM
